Source: patent US6544756B1, “Sorbitol dehydrogenase, microorganism for producing same, process for the production thereof, method for the measurement of sorbitol and reagent for the quantitative determination therefor” (Unitika Ltd., priority 1999, dated 2003)

Legend:
Format in all cases: biochemical
[1] = test system: sorbitol dehydrogenase derived from Pseudomonas fluorescens A-654 strain; test: Substrate specificity (Vmax/Km, Km) of sorbitol dehydrogenase from A-654 strain; settings: enzyme from Pseudomonas fluorescens A-654; for Vmax/Km: relative to D-sorbitol taken as 100
Procedure: (§1) The sorbitol dehydrogenase of the invention has the foregoing physicochemical properties. In the present invention, the measurement of the activity of sorbitol dehydrogenase was carried out by adding an enzyme solution to a 80 mM Tris-HCl buffer (pH 9.0) containing 50 mM of D-sorbitol and 2 mM of NAD^+, slowly mixing them, and then measuring the change of absorbance at 340 nm by means of a spectrophotometer. The measurement was made at a temperature of 30° C. The amount of enzyme required to produce 1 μmol of NADH per minute was defined to be 1 unit (U).
(§2) (2) Substrate specificity: The Vmax/Km of the sorbitol dehydrogenase of the invention with respect to various substrates (relative to that with respect to D-sorbitol taken as 100) is about 40 or less for galactitol and about 3 or less for iditol, preferably about 30 or less for galactitol and about 2 or less for iditol. The Km for D-sorbitol is about 6 mM or less, preferably about 4 mM or less. Among the sorbitol dehydrogenases of the invention, the substrate specificities of those derived from Flavimonas oryzihabitans A-520 strain, Pseudomonas fluorescens A-989 strain and Pseudomonas fluorescens A-654 strain are shown in Table 2 below.
(§3) Vmax means the maximum velocity of the reaction at the saturated substrate concentration and Km means the Michaelis constant. The Vmax/Km values indicates the apparent […] of the enzyme reaction as a whole, which is generally used as an index for reflecting the substrate specificity. These values may be measured and calculated in accordance with the methods described in Chapter 8 of Biochemistry, second edition, by Albert Lehninger, 1975, Worth Publishers, Inc. or in Enzyme Structure and Mechanism, second edition, by Alan Fersht, 1984, W. H. Freeman & Co.

[2] = test system: sorbitol dehydrogenase derived from Pseudomonas fluorescens A-989 strain; test: Substrate specificity (Vmax/Km, Km) of sorbitol dehydrogenase from A-989 strain; settings: enzyme from Pseudomonas fluorescens A-989; for Vmax/Km: relative to D-sorbitol taken as 100
Procedure: as §1, §2, §3

[3] = test system: sorbitol dehydrogenase derived from Flavimonas oryzihabitans A-520 strain; test: Substrate specificity (Vmax/Km, Km) of sorbitol dehydrogenase from A-520 strain; settings: enzyme from Flavimonas oryzihabitans A-520; for Vmax/Km: relative to D-sorbitol taken as 100
Procedure: as §1, §2, §3

| Vmax/Km [1] [%] | Vmax/Km [2] [%] | Vmax/Km [3] [%] | Km [1] [µM] | Km [2] [µM] | Km [3] [µM] | Structure (SMILES) |
| --- | --- | --- | --- | --- | --- | --- |
| 0 | 0 | 0 | – | – | – | OC[C@@H](O)[C@H](O)[C@@H](O)CO [Xylitol, xylitol] |
| 0 | 0 | 0 | – | – | – | O=C[C@H](O)[C@@H](O)[C@H](O)[C@H](O)CO [D-Glucose, D-glucose] |
| 31.9 | 36.8 | 28.9 | 2000 | 3100 | 1900 | OC[C@@H](O)[C@H](O)[C@H](O)[C@@H](O)CO [Galactitol] |
| 100 | 100 | 100 | 3500 | 5900 | 2500 | OC[C@@H](O)[C@@H](O)[C@H](O)[C@@H](O)CO [Sorbitol, D-sorbitol] |
| 0 | 0 | 0 | – | – | – | OC[C@@H](O)[C@@H](O)[C@H](O)[C@H](O)CO [Mannitol, D-mannitol] |
| 1.55 | 2.78 | 1.99 | – | – | – | OC[C@H](O)[C@@H](O)[C@H](O)[C@@H](O)CO [Iditol, L-iditol] |
| 0 | 0 | 0 | – | – | – | OC[C@@H](O)C(O)[C@H](O)CO [Arbitol, D-arabitol] |
